From US20220242846A1, “ISOINDOLINONE COMPOUNDS” (Monte Rosa Therapeutics AG, priority 2019, published 2022)
Where two headings read alike, the source gives them in different places.

What was measured:
GSPT1 = GSPT1 (Homo sapiens, UniProt P15170+Q96SW2); assay: Immunofluorescence assay for GSPT1 degradation in CAL-51 cells; format: cell-based; design: CAL-51 cells were purchased from DSMZ (cat. Number ACC302); endogenous in cells; host or cells: CAL-51 (DSMZ ACC302); conditions: compound treatment 6 hours
Method: CAL-51 cells were purchased from DSMZ (cat. Number ACC302), sub-cultured in 90% Dulbecco's MEM (4.5 g/L glucose, Gibco 11965) +10% heat inactivated FBS (BioConcept, 2-01F136I) and incubated at 37° C., 5% CO2. For the assay, imaging microtiterplate Cell Carrier 96 Ultra (Perkin Elmer 6055302) were pre-coated with Fibronectin (Sigma F085, 300 at 0.2 μg/ml) in PBS (1000, Gibco 14190) for 45 min at room temperature, rinsed with PBS and CAL-51 cells (30K cells/well) were plated and let to adhere overnight. Cells were treated with compounds typically using a serial dilution ranging from 30 μM to 0.1 nM for 6 hours. Compounds were stored at 10 mM DMSO stocks. Vehicle (DMSO), positive (CC-885, 10 μM) and rescue controls (positive control plus 0.2 μM bortezomib) were also included at this stage. Cells were subsequently rinsed with PBS and fixed in 10% Formalin solution (50 μl, Sigma HT5011)) for 20 mins at room temperature. Following three consecutive PBS washes (100 μl), cells were permeabilized in 0.1% Triton X-100 in PBS (Sigma 93443, 50 μl) for 15 mins at room temperature. Following three further PBS washes, 50 μl blocking buffer (1% BSA, Sigma A4503, in PBS) was added for 45 min for signal-to-noise reduction. Primary antibody (human GSPT1, Sigma HPA052488) was diluted in blocking buffer (dil. 1/300, 35 μl/well) and incubated with the cells overnight at 4° C. After three PBS washes, Alexa-fluor 488 coupled secondary antibodies (Invitrogen, A32731, dil. 1/1000), Alexa-fluor 647-Phalloïdin (Invitrogen, A22287, dil. 1/200) and DAPI (Thermo, #62248, dil.1/1000) were diluted in blocking buffer and incubated with the samples for 2 hours at room temperature. After three final PBS washes, samples were conserved in 1000 PBS in the dark, until measurement. Image acquisition was performed on the Operetta High-Content Imager (Perkin-Elmer). Fluorescence intensity of Alexa-Fluor 488 (GSPT1), Alexa-Fluor 647 (Actin) and DAPI (Nucleus) were measured. For the determination of GSPT1 DC50 values, a custom algorithm implemented in the PerkinElmer image analysis software Harmony-Acapella® was developed. After user-defined setting of adjustment parameters, the analysis was run identically without human intervention for all image fields. DAPI staining of the nuclei was used to determine the location of cells using standard nuclei detection modules. Segmentation artifacts were removed by threshold-based filters for area, roundness and intensity. The outline of the cells was determined analogously from the sum of the normalized, smoothed DAPI and Actin channel, starting from each nucleus. The Alexa-Fluor 488 (GSPT1) signal intensity in each cell was finally measured, in order to obtain a Mean intensity per cell. GSPT1 degradation (DC50) was calculated after normalization to controls and data import in CDD vault Database, using non-linear regression. Activity for GSPT1 Degradation Table 3 assigns each compound a code indicating the ability for GSPT1 degradation: A, B or C. According to the code, A represents a DC50 value of ≤100 nM, B represents a DC50 value >100 nM and ≤300 nM and C represents a DC50 value of >300 nM.

[1] = target: T1, Full length wild-type cereblon CRBN (Homo sapiens, UniProt Q96SW2); assay: Fluorescence polarization (FP) assay indicating cereblon binding; conditions: CRBN 80.0 nM, fluorescent probe 5 nM, FP measured after 12 hours; read-out: rFP IC50
T1 construct: Full length wild-type cereblon CRBN (80.0 nM, 10 μL) was incubated in assay buffer
Excerpt: Protocol for Fluorescent Polarization Assay
Compound activity was monitored in a fluorescence polarization (FP) homogeneous assay using 1-[5-({2-[2-(2-{[2-(2,6-dioxopiperidin-3-yl)-1,3-dioxo-2,3-dihydro-1H-isoindol-4-yl]oxy}acetamido)ethoxy]ethyl}carbamoyl)pentyl]-3,3-dimethyl-2-[(1E,3E)-5-[(2E)-1,3,3-trimethyl-5-sulfo-2,3-dihydro-1H-indol-2-ylidene]penta-1,3-dien-1-yl]-3H-indol-1-ium-5-sulfonate as a fluorescent probe. Unless otherwise stated, all reagents were purchased from Sigma Aldrich. Enzymatic reactions were conducted in Perkin-Elmer Black 384 well ProxiPlate Plus (catalogue no. 6008269) in 10 μL total volume. Full length wild-type cereblon CRBN (80.0 nM, 10 μL) was incubated in assay buffer containing 20 mM HEPES (pH 8.0), […], 0.5 mM TCEP and 0.05% Tween 20 in the presence or absence of compound (300 nL). Inhibitors were stored as 10 mM DMSO stocks in an inert environment (low humidity, dark, low oxygen, room temperature) using the Storage Pod System. Compounds and DMSO were dispensed using the Echo E5XX (Labcyte Inc. USA) to give concentrations from 300 to 0.937 or 3000 to 9.3 nM in a 12 data point curve. […] Following incubation at room temperature for […], the assay was initiated by dispensing the probe to a final concentration of 5 nM (2.5 nL of a 20 μM stock) using the Echo E5XX. FP was measured after a period of 12 hours using a Pherastar plate reader (BMG Labtech, Germany) exciting at 590 nm and measuring the amount of parallel and perpendicular light at 675 nm. The FP signal was subsequently normalized to the no-compound control (i.e., DMSO). Analysis and IC50 values were derived using Dotmatics (Dotmatics UK) software.

[2] = read-out: Code: activity for GSPT1 degradation (DC50)
[3] = GSPT1 degradation, read-out: DC50

T1 sequence (Q96SW2 whole entry): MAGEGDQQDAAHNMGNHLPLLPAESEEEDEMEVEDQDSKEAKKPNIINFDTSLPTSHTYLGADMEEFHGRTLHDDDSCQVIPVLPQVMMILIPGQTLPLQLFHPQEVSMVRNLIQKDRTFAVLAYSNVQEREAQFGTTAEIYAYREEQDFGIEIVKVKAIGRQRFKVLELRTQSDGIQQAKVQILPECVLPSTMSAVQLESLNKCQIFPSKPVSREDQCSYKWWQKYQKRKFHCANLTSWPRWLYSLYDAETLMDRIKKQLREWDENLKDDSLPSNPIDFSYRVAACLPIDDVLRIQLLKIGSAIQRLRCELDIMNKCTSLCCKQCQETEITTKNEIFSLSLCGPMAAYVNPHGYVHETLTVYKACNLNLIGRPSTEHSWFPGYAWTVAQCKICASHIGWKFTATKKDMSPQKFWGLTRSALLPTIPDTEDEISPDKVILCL
Sequence of GSPT1 (P15170 whole entry): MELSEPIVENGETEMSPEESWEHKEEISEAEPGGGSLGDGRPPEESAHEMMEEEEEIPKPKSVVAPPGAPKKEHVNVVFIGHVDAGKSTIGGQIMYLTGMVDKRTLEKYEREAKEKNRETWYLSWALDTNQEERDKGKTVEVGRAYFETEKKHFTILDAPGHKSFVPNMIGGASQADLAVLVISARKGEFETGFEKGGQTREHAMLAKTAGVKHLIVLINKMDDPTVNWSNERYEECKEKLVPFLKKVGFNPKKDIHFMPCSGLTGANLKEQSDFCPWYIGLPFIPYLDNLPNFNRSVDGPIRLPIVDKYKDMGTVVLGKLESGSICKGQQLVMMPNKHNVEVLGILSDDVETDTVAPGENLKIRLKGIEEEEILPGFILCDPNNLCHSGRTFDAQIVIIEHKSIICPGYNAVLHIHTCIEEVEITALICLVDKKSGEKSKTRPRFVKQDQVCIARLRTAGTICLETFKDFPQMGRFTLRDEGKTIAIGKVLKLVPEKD
Sequence of GSPT1 (Q96SW2 whole entry): as the sequence (Q96SW2 whole entry) above
Sequence of GSPT1 (Q16531 2-1140 partner limits assumed): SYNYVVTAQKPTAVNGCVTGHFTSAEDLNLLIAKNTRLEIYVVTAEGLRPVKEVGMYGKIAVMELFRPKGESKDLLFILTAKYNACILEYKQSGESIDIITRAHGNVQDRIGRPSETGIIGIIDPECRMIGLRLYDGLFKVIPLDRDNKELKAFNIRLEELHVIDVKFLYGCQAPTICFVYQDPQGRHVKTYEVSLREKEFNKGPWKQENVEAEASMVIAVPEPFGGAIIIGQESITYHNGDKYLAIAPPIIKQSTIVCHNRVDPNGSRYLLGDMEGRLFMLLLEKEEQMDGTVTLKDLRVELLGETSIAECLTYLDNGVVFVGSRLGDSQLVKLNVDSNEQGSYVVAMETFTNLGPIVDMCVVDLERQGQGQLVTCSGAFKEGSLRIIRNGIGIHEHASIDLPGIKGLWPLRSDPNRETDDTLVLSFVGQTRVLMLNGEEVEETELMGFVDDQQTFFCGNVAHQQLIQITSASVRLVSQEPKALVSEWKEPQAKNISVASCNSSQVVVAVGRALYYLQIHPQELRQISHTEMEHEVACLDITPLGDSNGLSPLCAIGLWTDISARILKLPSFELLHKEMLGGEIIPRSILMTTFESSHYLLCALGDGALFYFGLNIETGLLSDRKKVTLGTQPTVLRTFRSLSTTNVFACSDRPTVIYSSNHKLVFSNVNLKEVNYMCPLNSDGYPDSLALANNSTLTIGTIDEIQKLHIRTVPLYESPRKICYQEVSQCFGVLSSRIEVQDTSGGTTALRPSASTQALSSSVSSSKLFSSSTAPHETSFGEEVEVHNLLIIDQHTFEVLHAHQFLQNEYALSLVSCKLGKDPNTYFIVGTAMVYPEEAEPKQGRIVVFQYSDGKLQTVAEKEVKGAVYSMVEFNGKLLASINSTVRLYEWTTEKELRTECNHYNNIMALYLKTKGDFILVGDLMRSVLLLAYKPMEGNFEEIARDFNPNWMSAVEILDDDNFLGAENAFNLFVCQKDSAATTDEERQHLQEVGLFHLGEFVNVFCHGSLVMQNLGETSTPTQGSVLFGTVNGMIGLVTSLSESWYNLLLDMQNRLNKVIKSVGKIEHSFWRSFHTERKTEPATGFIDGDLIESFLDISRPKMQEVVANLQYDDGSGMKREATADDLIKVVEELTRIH

Row | SMILES | DC50 (GSPT1; [2]) | IC50 [1] | DC50 (GSPT1; [3])
1 | O=C1CCC(N2Cc3ccc(CNC(=O)Nc4cncs4)cc3C2=O)C(=O)N1 (centres unmarked) [Compound 103] | > 300 nM | 272 nM | –
2 | Nc1ccc(NC(=O)NCc2ccc3c(c2)C(=O)N(C2CCC(=O)NC2=O)C3)cc1 (centres unmarked) [Compound 81] | > 300 nM | 919 nM | –
3 | CC(C)(O)c1cccc(NC(=O)NCc2ccc3c(c2)C(=O)N(C2CCC(=O)NC2=O)C3)c1 (centres unmarked) [Compound 135] | > 300 nM | 477 nM | –
4 | O=C1CCC(N2Cc3ccc(CNC(=O)Nc4cccs4)cc3C2=O)C(=O)N1 (centres unmarked) [Compound 91] | > 300 nM | 315 nM | –
5 | COc1c(NC(=O)NCc2ccc3c(c2)C(=O)N(C2CCC(=O)NC2=O)C3)ccc(C)c1Cl (centres unmarked) [Compound 86] | > 300 nM | 203 nM | –
6 | Nc1cccc(NC(=O)NCc2ccc3c(c2)C(=O)N(C2CCC(=O)NC2=O)C3)c1 (centres unmarked) [Compound 80] | > 300 nM | 515 nM | –
7 | Cc1c(Cl)cc(NC(=O)NCc2ccc3c(c2)C(=O)N(C2CCC(=O)NC2=O)C3)cc1C12CC1CN(C)C2 (centres unmarked) [Compound 155] | 100 to 300 nM | 581 nM | 176 nM
8 | Cc1ccc(NC(=O)NCc2ccc3c(c2)C(=O)N(C2CCC(=O)NC2=O)C3)nc1Cl (centres unmarked) [Compound 137] | > 300 nM | 1140 nM | –
9 | O=C1CCC(N2Cc3ccc(CNC(=O)Nc4cn[nH]c4)cc3C2=O)C(=O)N1 (centres unmarked) [Compound 108] | > 300 nM | 661 nM | –
10 | CC(C)(C)c1ccc(NC(=O)NCc2ccc3c(c2)C(=O)N(C2CCC(=O)NC2=O)C3)cn1 (centres unmarked) [Compound 163] | ≤ 100 nM | 1470 nM | –
11 | Cn1cc(NC(=O)NCc2ccc3c(c2)C(=O)N(C2CCC(=O)NC2=O)C3)cn1 (centres unmarked) [Compound 83] | > 300 nM | 387 nM | –
12 | Cn1nccc1-c1cccc(NC(=O)NCc2ccc3c(c2)C(=O)N(C2CCC(=O)NC2=O)C3)c1 (centres unmarked) [Compound 115] | 100 to 300 nM | 230 nM | 299 nM
13 | CC(C)(O)c1ccc(NC(=O)NCc2ccc3c(c2)C(=O)N(C2CCC(=O)NC2=O)C3)cc1 (centres unmarked) [Compound 131] | > 300 nM | 334 nM | –
14 | Cc1ccc(NC(=O)NCc2ccc3c(c2)C(=O)N(C2CCC(=O)NC2=O)C3)cc1OC(F)F (centres unmarked) [Compound 159] | > 300 nM | 676 nM | –
15 | O=C1CCC(N2Cc3ccc(CNC(=O)Nc4cc(F)cc(OC(F)(F)F)c4)cc3C2=O)C(=O)N1 (centres unmarked) [Compound 165] | > 300 nM | 1630 nM | –
16 | Cc1c(Cl)cc(NC(=O)NCc2ccc3c(c2)C(=O)N(C2CCC(=O)NC2=O)C3)cc1OCCN1CCOCC1 (centres unmarked) [Compound 127] | ≤ 100 nM | 261 nM | –

Row | SMILES | DC50 (GSPT1; [2]) | IC50 [1] | DC50 (GSPT1; [3])
17 | Cc1ncc(NC(=O)NCc2ccc3c(c2)C(=O)N(C2CCC(=O)NC2=O)C3)cc1Cl (centres unmarked) [Compound 157] | > 300 nM | 1520 nM | –
18 | Cc1c(CN2CCOCC2)cc(NC(=O)NCc2ccc3c(c2)C(=O)N(C2CCC(=O)NC2=O)C3)cc1OC(F)(F)F (centres unmarked) [Compound 151] | ≤ 100 nM | 883 nM | –
19 | O=C1CCC(N2Cc3ccc(CNC(=O)Nc4cccc(Oc5ccccn5)c4)cc3C2=O)C(=O)N1 (centres unmarked) [Compound 121] | 100 to 300 nM | 243 nM | –
20 | CN(C)CC(=O)Oc1cccc(NC(=O)NCc2ccc3c(c2)C(=O)N(C2CCC(=O)NC2=O)C3)c1 (centres unmarked) [Compound 136] | > 300 nM | 425 nM | –
21 | O=C1CCC(N2Cc3ccc(CNC(=O)Nc4ccsc4)cc3C2=O)C(=O)N1 (centres unmarked) [Compound 84] | > 300 nM | 348 nM | –
22 | Cn1ccc(-c2cccc(NC(=O)NCc3ccc4c(c3)C(=O)N(C3CCC(=O)NC3=O)C4)c2)n1 (centres unmarked) [Compound 116] | > 300 nM | 139 nM | –
23 | Cc1ccc(NC(=O)NCc2ccc3c(c2)C(=O)N(C2CCC(=O)NC2=O)C3)cc1OC(F)(F)F (centres unmarked) [Compound 144] | ≤ 100 nM | 544 nM | –
24 | Cc1c(Cl)cc(NC(=O)NCc2ccc3c(c2)C(=O)N(C2CCC(=O)NC2=O)C3)cc1CN1CCC(N(C)C)CC1 (centres unmarked) [Compound 133] | > 300 nM | 252 nM | –
25 | O=C1CCC(N2Cc3ccc(CNC(=O)Nc4cccc(OC(F)(F)F)c4)cc3C2=O)C(=O)N1 (centres unmarked) [Compound 90] | ≤ 100 nM | 471 nM | –
26 | Cc1c(Cl)cc(NC(=O)NCc2ccc3c(c2)C(=O)N(C2CCC(=O)NC2=O)C3)cc1CN1CC2(COC2)C1 (centres unmarked) [Compound 109] | 100 to 300 nM | 163 nM | 246 nM
27 | O=C1CCC(N2Cc3ccc(CNC(=O)Nc4cc[nH]n4)cc3C2=O)C(=O)N1 (centres unmarked) [Compound 102] | > 300 nM | 389 nM | –
28 | CN(C)c1cccc(NC(=O)NCc2ccc3c(c2)C(=O)N(C2CCC(=O)NC2=O)C3)c1 (centres unmarked) [Compound 89] | 100 to 300 nM | 225 nM | 198 nM
29 | CCc1cnc(NC(=O)NCc2ccc3c(c2)C(=O)N(C2CCC(=O)NC2=O)C3)s1 (centres unmarked) [Compound 148] | > 300 nM | 169 nM | –
30 | O=C1CCC(N2Cc3ccc(CNC(=O)Nc4cccc(OC5CCNCC5)c4)cc3C2=O)C(=O)N1 (centres unmarked) [Compound 111] | > 300 nM | 240 nM | –
31 | Cc1c(Cl)cc(NC(=O)NCc2ccc3c(c2)C(=O)N(C2CCC(=O)NC2=O)C3)cc1C=O (centres unmarked) [Compound 156] | > 300 nM | 607 nM | –
32 | Cc1ccc(NC(=O)NCc2ccc3c(c2)C(=O)N(C2CCC(=O)NC2=O)C3)c(C)c1Cl (centres unmarked) [Compound 93] | > 300 nM | 248 nM | –
